Results published in publication PMC10819771 (Pharmaceuticals, 2023).

What was measured:
HeLa = experiment: MTT antiproliferative assay, HeLa; format: cell-based, human; settings: for IC50: Homo sapiens, HeLa, MTT, 72 h, cervical cancer cells, read-out: IC50 Values (μM) ± SEM HeLa; for Selectivity Index HEK293/HeLa: IC50 HEK293 / IC50 HeLa
Procedure: (§1) The growth-inhibitory effects of the compounds were determined by MTT (3-(4,5-dimethylthiazol-2-yl)-2,5-diphenyltetrazolium bromide) assay on selected cell lines, including HeLa and SiHa (cervical cancers), MDA-MB-231 and MCF-7 (breast cancers), and A2780 ovarian cancer cells. All cell lines were purchased from the European Collection of Cell Cultures (Salisbury, UK) except SiHa, which was obtained from the American Tissue Culture Collection (Manassas, VA, USA). The cells were kept in minimum essential medium supplemented with 10% fetal bovine serum, 1% non-essential amino acids, and 1% penicillin-streptomycin-amphotericin-B at 37 °C in a humidified atmosphere containing 5% CO2. Media and supplements were obtained from Lonza Group Ltd., (Basel, Switzerland). Cancer cells were seeded onto 96-well plates (5000 cells/well), after an overnight incubation the test compounds were added in six concentrations (0.1, 0.3, 1.0, 3.0, 10.0, 30.0 µM) and incubated for 72 h under cell-culture condition. After the incubation, 20 μL of 5 mg/mL MTT solution was added to each well and incubated for a further 4 h. The medium was removed, and the precipitated formazan crystals were dissolved in DMSO for 30 min under shaking at 37 °C. The absorbance was measured at 545 nm with a microplate reader. Untreated cells were included as controls. Calculations were performed by means of the GraphPad Prism 5.01 software (GraphPad Software Inc., San Diego, CA, USA). At least two independent determinations were performed with 5 parallel wells for each condition.

SiHa = experiment: MTT antiproliferative assay, SiHa; format: cell-based, human; settings: for IC50: Homo sapiens, SiHa, MTT, 72 h, cervical cancer cells, read-out: IC50 Values (μM) ± SEM SiHa; for Selectivity Index HEK293/SiHa: IC50 HEK293 / IC50 SiHa
Procedure: as §1

MCF-7 = experiment: MTT antiproliferative assay, MCF-7; format: cell-based, human; settings: for IC50: Homo sapiens, MCF7, 72 h, MTT, 72 h, breast cancer cells, read-out: IC50 Values (μM) ± SEM MCF-7; for Selectivity Index HEK293/MCF-7: IC50 HEK293 / IC50 MCF-7
Procedure: as §1

MDA-MB-231 = experiment: MTT antiproliferative assay, MDA-MB-231; format: cell-based, human; settings: for IC50: Homo sapiens, MDA-MB-231, 72 h, MTT, 72 h, breast cancer cells, read-out: IC50 Values (μM) ± SEM MDA-MB-231; for Selectivity Index HEK293/MDA-MB-231: IC50 HEK293 / IC50 MDA-MB-231
Procedure: as §1

A2780 = experiment: MTT antiproliferative assay, A2780; format: cell-based, human; settings: for IC50: Homo sapiens, A2780, MTT, 72 h, ovarian cancer cells, read-out: IC50 Values (μM) ± SEM A2780; for Selectivity Index HEK293/A2780: IC50 HEK293 / IC50 A2780
Procedure: as §1

K562 = experiment: MTS cell proliferation assay, K562; format: cell-based, human; settings: for IC50: Homo sapiens, K562, 72 h, MTS, 3-day incubation, leukemia cells, read-out: IC50 Values (μM) ± SEM K562; for Selectivity Index HEK293/K562: IC50 HEK293 / IC50 K562
Procedure: The human leukemic cell line K562 was grown in RPMI 1640 medium (Life Technology-Invitrogen by Thermo Fisher Scientific, Saint-Aubin, France) supplemented with 10% fetal calf serum (FCS), antibiotics (100 U/mL penicillin, 100 µg/mL streptomycin), and L-glutamine, (Eurobio, Les Ulis, France) at 37 °C, 5% CO2 in air. The MTS cell proliferation assay (Promega, Charbonnières-les-Bains, France) is a colorimetric assay system, which measures the transformation of a tetrazolium component (MTS) into formazan produced by the mitochondria of viable cells. Cells were washed twice in PBS (Phosphate Buffer Saline) and plated in quadruplicate into microtiter-plate wells in 100 μL culture media with or without our various compounds at increasing concentrations (0, 1, 5, 10, 20, and 50 μM) for 1, 2, and 3 days. After 3 h of incubation at 37 °C with 20 μL MTS/well, the plates were read using an ELISA microplate reader (Thermo, Electrocorporation, Waltham, MA, USA) at 490 nm. The amount of color produced was directly proportional to the number of viable cells. The results are expressed as the concentrations inhibiting cell growth by 50% after a 3-day incubation period. The 50% cytotoxic concentrations (CC50) were determined by linear regression analysis, expressed in μM ± SD (Microsoft Excel).

HEK293 = experiment: MTT proliferation test on normal cells, HEK293; format: cell-based; settings: Homo sapiens, normal epithelial cells, cytotoxicity, read-out: IC50 Values (μM) ± SEM HEK293
Procedure: The MTT proliferation test on the epithelial cell line HEK293 was performed as pre-viously described. The 50% inhibiting concentrations (IC50) were determined by linear regression analysis.

Fc-MYCT = experiment: FRET-melting, Fc-MYCT; format: binding; settings: ligand 2 μM, DNA 0.2 μM, K+ conditions, pH 7.2
Procedure: (§2) FRET-melting experiments were conducted on a Stratagene MX3005P (Thermo Fisher Scientific, Illkirch-Graffenstaden, France) real-time PCR equipment in 96-well plates on the DNA sequences reported in Table 4. Experiments were performed in 10 mM lithium cacodylate buffer (pH 7.2) and either 10 mM KCl and 90 mM LiCl (FK-RAST, FBCL-2T, F21T, and FdxT) or 1 mM KCl and 99 mM LiCl (Fc-MYCT) concentrations, depending on the Tm of the G4s alone. The DNA concentration was 0.2 µM. […] Data are presented as an average of three independent measurements, each conducted in duplicate conditions (λexc = 492 nm, λem = 516 nm, T interval = 25–95 °C, ramp: 25 °C for 5 min, then 1 °C/min, measurements every 1 °C, 8× magnification of the fluorescence signal).

FK-RAST = experiment: FRET-melting, FK-RAST; format: binding; settings: ligand 2 μM, DNA 0.2 μM, 10 mM KCl, 90 mM LiCl, pH 7.2
Procedure: as §2

FBCL-2T = experiment: FRET-melting, FBCL-2T; format: binding; settings: ligand 2 μM, DNA 0.2 μM, 10 mM KCl, 90 mM LiCl, pH 7.2
Procedure: as §2

FdxT = experiment: FRET-melting, duplex control FdxT; format: binding; settings: ligand 2 μM, DNA 0.2 μM, 10 mM KCl, 90 mM LiCl, pH 7.2, hairpin duplex
Procedure: as §2

telomerase = experiment: Telomerase activity (TRAP assay) in MCF-7 cell lysates; format: biochemical, human; settings: MCF-7 cell lysate; for telomerase activity compared to control: 5 µM compound
Procedure: Telomerase activity was assessed using the TRAP assay kit (TRAPeze® RT telomerase detection kit, Chemicon, Millipore Sigma S7700, Merck KGaA, Darmstadt, Germany) according to manufacturer’s instructions with some modifications. Briefly, […] in CHAPS lysis buffer and proteins were extracted. Protein extracts and various concentrations of compounds (0 to 5 µM) were used to extend a synthetic telomeric DNA using an enzymatic reaction (30 °C during 20 min), followed by a quantification of telomeric DNA using a telomeric PCR amplification: 95 °C for 3 min, 2 cycles of 95 °C for 20 s, and 49 °C for 20 s, followed by 30 cycles 95 °C for 20 s and 60 °C for 20 s with signal acquisition) in a Stratagene Mx3005P system (Agilent, Les Ulis, France) using specific telomeric PCR quantitative primers. Each sample was measured in technical duplicate with control DNA. For each drug and each dilution, we used biological triplicate of cell lysates.

[1] = tested on: human telomeric sequence F21T; experiment: FRET-melting, F21T; format: binding; settings: ligand 2 μM, DNA 0.2 μM, 10 mM KCl, 90 mM LiCl, pH 7.2
Procedure: as §2

Row | SMILES | IC50 (HeLa) | Selectivity Index HEK293/HeLa (HeLa) | IC50 (SiHa) | Selectivity Index HEK293/SiHa (SiHa) | IC50 (MCF-7) | Selectivity Index HEK293/MCF-7 (MCF-7) | IC50 (MDA-MB-231) | Selectivity Index HEK293/MDA-MB-231 (MDA-MB-231) | IC50 (A2780) | Selectivity Index HEK293/A2780 (A2780) | IC50 (K562) | Selectivity Index HEK293/K562 (K562) | IC50 (HEK293) | ΔT1/2 (°C) Fc-MYCT (Fc-MYCT) | ΔT1/2 (°C) FK-RAST (FK-RAST) | ΔT1/2 (°C) FBCL-2T (FBCL-2T) | ΔT1/2 (°C) FdxT (FdxT) | telomerase activity compared to control (telomerase) | ΔT1/2 (°C) F21T [1] | concentration from which MCF-7 telomerase activity is decreased (telomerase; 0 to 5 µM tested)
1 | CN(C)CCCNCc1ccc(-c2nc(-c3ccc(CNCCCN(C)C)cc3)c3ccc(-c4ccccc4)cc3n2)cc1 [Compound 12f, 2,4-bis{4-[(3-dimethylaminopropyl)aminomethyl]phenyl}-7-phenylquinazoline] | 1.51 ± 0.09 µM | >19.9 | 0.75 ± 0.1 µM | >40.0 | 0.58 ± 0.08 µM | >51.7 | 0.55 ± 0.01 µM | >54.5 | 0.79 ± 0.19 µM | >38.0 | 14 ± 0.3 µM | >2.14 | > 30 µM | 9.1 ± 1.4 °C | 20.1 ± 0.3 °C | 12.6 ± 0.6 °C | 2.4 ± 0.1 °C | reduced drastically | – | –
2 | CN(C)CCCCNCc1ccc(-c2nc(-c3ccc(CNCCCCN(C)C)cc3)c3ccc(-c4ccccc4)cc3n2)cc1 [Compound 12g, 2,4-bis{4-[(4-dimethylaminobutyl)aminomethyl]phenyl}-7-phenylquinazoline] | 0.95 ± 0.51 µM | 4.19 | 0.52 ± 0.22 µM | 7.65 | 0.63 ± 0.35 µM | 6.32 | 0.67 ± 0.35 µM | 5.94 | 1.74 ± 0.89 µM | 2.29 | 12 ± 0.3 µM | 0.33 | 3.98 ± 0.12 µM | 14.7 ± 0.8 °C | 24.3 ± 1.1 °C | 17.5 ± 0.6 °C | 3.2 ± 0.3 °C | – | 19.2 ± 1.0 °C | –
3 | CN1CCN(CCCNCc2ccc(-c3nc(-c4ccc(CNCCCN5CCN(C)CC5)cc4)c4ccc(-c5ccccc5)cc4n3)cc2)CC1 [Compound 12i] | 1.15 ± 0.36 µM | >26.1 | 0.92 ± 0.24 µM | >32.6 | 0.67 ± 0.31 µM | >44.8 | 0.52 ± 0.02 µM | >57.7 | 1.14 ± 0.16 µM | >26.3 | 23 ± 0.5 µM | >1.30 | > 30 µM | 12.5 ± 0.7 °C | 20.2 ± 0.5 °C | 14.8 ± 0.7 °C | 1.9 ± 0.1 °C | reduced drastically | 18.6 ± 0.2 °C | 5 µM
4 | CN1CCN(CCCCNCc2ccc(-c3nc(-c4ccc(CNCCCCN5CCN(C)CC5)cc4)c4ccc(-c5ccccc5)cc4n3)cc2)CC1 [Compound 12j, 2,4-bis{4-[(4-(4-methylpiperazin-1-yl)butyl)aminomethyl]phenyl}-7-phenylquinazoline] | 1.48 ± 0.8 µM | 3.31 | 0.33 ± 0.08 µM | 14.85 | 0.58 ± 0.25 µM | 8.45 | 1.1 ± 0.15 µM | 4.45 | 1.44 ± 0.1 µM | 3.40 | 8 ± 0.2 µM | 0.61 | 4.9 ± 0.15 µM | 14.1 ± 0.3 °C | 18.7 ± 1.6 °C | 9.8 ± 1.0 °C | 1.5 ± 0.4 °C | – | 14.5 ± 1.2 °C | –
5 | CN(C)CCCCNCc1ccc(-c2cc(-c3ccc(CNCCCCN(C)C)cc3)c3cc(-c4ccccc4)ccc3n2)cc1 [Compound 13b, 2,4-bis{4-[(4-dimethylaminobutyl)aminomethyl]phenyl}-6-phenylquinoline] | 3.58 ± 0.18 µM | – | 1.76 ± 0.61 µM | – | 3.03 ± 0.64 µM | – | 3.68 ± 0.8 µM | – | 6.49 ± 1.76 µM | – | 13 ± 0.4 µM | – | – | 13.8 ± 3.0 °C | 19.6 ± 3.5 °C | 11.1 ± 2.6 °C | 1.5 ± 0.6 °C | – | 13.6 ± 2.9 °C | –
